Here are results for 5 molecules from PMC4594923, “Food Polyphenols Fail to Cause a Biologically Relevant Reduction of COX-2 Activity” (PLoS ONE, 2015).

Values joined by “and” are separate entries in the source; they are usually repeats but may differ in a detail not shown here. Equal entries are not always repeated. “Also recorded” adds a separate entry of the source.

Data set [1] deals with T1, COX–2 (Homo sapiens, UniProt P35354).
T1 sequence (P35354 18-604): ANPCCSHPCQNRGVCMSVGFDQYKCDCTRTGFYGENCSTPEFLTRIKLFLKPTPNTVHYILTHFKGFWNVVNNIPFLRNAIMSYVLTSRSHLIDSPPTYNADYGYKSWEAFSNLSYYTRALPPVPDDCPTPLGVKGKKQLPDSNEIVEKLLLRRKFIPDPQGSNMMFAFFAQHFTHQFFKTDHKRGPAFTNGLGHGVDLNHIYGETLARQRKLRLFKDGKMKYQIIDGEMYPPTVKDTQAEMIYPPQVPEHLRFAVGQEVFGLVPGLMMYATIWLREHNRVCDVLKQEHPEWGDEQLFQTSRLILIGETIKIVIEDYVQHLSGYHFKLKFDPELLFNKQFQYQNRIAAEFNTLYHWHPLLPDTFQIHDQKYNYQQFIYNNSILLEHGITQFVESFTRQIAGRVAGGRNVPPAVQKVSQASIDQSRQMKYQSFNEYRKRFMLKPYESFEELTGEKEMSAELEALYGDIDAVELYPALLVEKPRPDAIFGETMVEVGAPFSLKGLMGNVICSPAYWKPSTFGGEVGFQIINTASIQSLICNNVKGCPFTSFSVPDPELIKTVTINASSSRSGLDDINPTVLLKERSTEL
In words: PGE2 formation in LPS stimulated primary human monocytes (24 h, LC-MS). The note with it: for IC50: read-out: IC50 (95% CI), primary monocytes. The format is cell-based.
Description: (§1) The in vitro assays were performed as described [6, 16, 18] and COX metabolites were quantified by LC-MS [18].
(§2) Primary human monocytes were freshly isolated from human blood. Blood was collected from healthy human subjects after written informed consent was obtained. […] After 24 h, the supernatant was sampled for LC-MS and cells were collected for the COX–2 expression analysis by Western Blotting.
(§3) GraphPad Prism 5.0 (GraphPad Software, San Diego, USA) was used for data analysis, the fitting of dose response curves and calculation of the IC50 values. Statistical differences were determined by Dunnetts test (LPS vs. other groups).

Data set [2] has as its target T1, COX–2. Kind of data set: PGE2 formation in HCA–7 cells (24 h, LC-MS). The note with it: for IC50 (95% CI), HCA-7 cell line: calculated based on PGE2, n = 3, 24 h; for changes of PGE2 formation in HCA–7 cells: non-cytotoxic concentrations, 24 h. Type of data set: cell-based.
Description: as §1
(§4) HCA–7 cells were incubated with sub-cytotoxic concentrations of the polyphenols dissolved in Tris buffered DMEM medium. Cytotoxicity of the polyphenols was evaluated by the lactate dehydrogenase leakage test (Cyto-Tox-ONE, Promega Mannheim, Germany). After 24 h the supernatant was collected for LC-MS analysis and the cells were harvested to analyze the COX–2 expression by Western Blotting.
After 24 h, the supernatant was sampled for LC-MS and cells were collected for the COX–2 expression analysis by Western Blotting.
as §3
The target of data set [3] is T1, COX–2. In words: cell-free COX–2 enzyme assay (PGE2 formation, LC-MS). Type of data set: biochemical. The note with it: for IC50 / IC50 (95% CI), COX–2 enzyme assay: calculated based on PGE2, n = 3; for IC50: read-out: IC50 (95% CI), COX–2 enzyme assay.
Description: as §1, §2, §3
For a further data set, the target named is T2, ovine recombinant COX–1 (Ovis aries, UniProt P05979).
T2 sequence (P05979 25-600): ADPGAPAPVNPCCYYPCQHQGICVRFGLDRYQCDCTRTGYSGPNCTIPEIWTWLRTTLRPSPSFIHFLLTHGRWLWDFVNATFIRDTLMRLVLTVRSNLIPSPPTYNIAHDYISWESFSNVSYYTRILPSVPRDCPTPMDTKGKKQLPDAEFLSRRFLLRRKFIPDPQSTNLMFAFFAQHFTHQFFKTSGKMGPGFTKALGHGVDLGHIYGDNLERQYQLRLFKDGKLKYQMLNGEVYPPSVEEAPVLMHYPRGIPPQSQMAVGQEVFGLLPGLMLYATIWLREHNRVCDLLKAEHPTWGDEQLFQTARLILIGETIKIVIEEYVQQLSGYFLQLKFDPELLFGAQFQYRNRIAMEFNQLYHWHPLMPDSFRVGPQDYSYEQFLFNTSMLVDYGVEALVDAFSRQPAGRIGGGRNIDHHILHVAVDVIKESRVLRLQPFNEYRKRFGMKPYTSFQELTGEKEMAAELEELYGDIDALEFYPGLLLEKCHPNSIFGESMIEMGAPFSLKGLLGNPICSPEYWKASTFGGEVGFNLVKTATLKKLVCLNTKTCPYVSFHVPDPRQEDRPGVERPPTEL
In words: cell-free COX–1 enzyme assay (PGE2 formation, LC-MS). Type of data set: biochemical. Also on record: purchased Cayman Chemicals/ Biomol, Hamburg, Germany. The note with it: for IC50 / IC50 (95% CI), COX–1 enzyme assay: calculated based on PGE2, n = 3; for IC50: read-out: IC50 (95% CI), COX–1 enzyme assay.

The test system of data set [4] is COX–2 protein. Kind of data set: COX–2 expression in HCA–7 cells (Western Blot). Type of data set: cell-based, human. The note with it: 24 h, vs. control.
Description: as §4
The test system of data set [5] is COX–2 protein. The note with it: cited from earlier work.
For data set [6] the following is noted: cited from earlier work.
The subject of data set [7] is COX–2 protein. Kind of data set: COX–2 expression in LPS stimulated primary human monocytes (Western Blot). The note with it: 24 h, vs. control. (In western blotting, separated proteins are transferred to a membrane and probed.)
Description: as §2
The test system of data set [8] is COX–2. The following applies: cited from earlier work.
[9] abbreviates: LPS stimulated, calculated based on PGE2, n = 3, 24 h.

Description for ovine recombinant COX–1: as §1, §2, §3

As usually defined, the IC50 is the concentration needed to halve the response being measured. As for `O=C(O[C@@H]1Cc2c(O)cc(O)cc2O[C@@H]1c1cc(O)c(O)c(O)c1)c1cc(O)c(O)c(O)c1` [EGCG, epigallocatechingallat], on COX–2 [1] (setting [9]), the “IC50 (95% CI), primary monocytes” value is “no effect(up to 10 μM)”. At COX–2 [2], the “IC50 (95% CI), HCA-7 cell line” value is given as “no effect (up to 10 μM)” and the “changes of PGE2 formation in HCA–7 cells” value was “no or only slight”. On COX–2 [3], the “effect on COX–2 dependent PGE2 formation, cell-free enzyme assay” value is “dose-dependently decreased; also recorded: inhibited” and the half-maximal inhibitory concentration (IC50) was 32 µM. For the same molecule, at ovine recombinant COX–1, the “effect on COX–1 dependent PGE2 formation, cell-free enzyme assay” value is on record as “dose-dependently decreased; also recorded: inhibited” and the IC50 was 17 µM. Further, the “COX-2 Expression, HCA-7 cell line” value in the data set with COX–2 protein [4] was “no effect(up to 10 μM)”. For the same molecule, the “COX–2 (protein) levels, RAW 264.7 cells” value in the data set with COX–2 protein [5] is given as “slight increase”. Further, the maximal plasma concentrations in data set [6] (in vivo) is 0.13 to 0.33 µM. In addition, the “COX-2 Expression, primary monocytes” value in the data set with COX–2 protein [7] was “Decreased COX–2 protein levels and 10 μM:COX–2 ↓”. Moreover, in the data set with COX–2 [8], the “PGE2 formation / levels, RAW 264.7 cells” value is recorded as “lack of effect”.
On to `COc1c(O)cc(O)c2c(=O)cc(-c3ccccc3)oc12` [Wogonin, wogonin], for which, at ovine recombinant COX–1, the “effect on COX–1 dependent PGE2 formation, cell-free enzyme assay” value is “no effect” and the “IC50 (95% CI), COX–1 enzyme assay” value is “no effect (up to 100 μM)”. In addition, the IC50 with COX–2 [8] (read-out: IC50, LPS stimulated murine macrophages) was 0.3 µM.
As a reminder, the inhibition is the change of the read-out against control, counted positive when it falls. `O=C1C[C@@H](c2ccc(O)cc2)Oc2cc(O)cc(O)c21` [Naringenin, naringenin]: the IC50 at COX–2 [1] (setting [9]) is 29 µM. For the same molecule, the inhibition at 100 µM at COX–2 [2] (HCA-7, 100 μM, read-out: inhibition, HCA-7 cell line) was determined as 53%. Besides, the “changes of PGE2 formation in HCA–7 cells” value at COX–2 [2] is on record as “affected”. The “effect on COX–2 dependent PGE2 formation, cell-free enzyme assay” value at COX–2 [3] is “no effect”. In addition, on COX–2 [3], the “IC50 (95% CI), COX–2 enzyme assay” value was “no effect (up to 100 μM)”. Besides, the “effect on COX–1 dependent PGE2 formation, cell-free enzyme assay” value on ovine recombinant COX–1 is reported as “no effect”. On ovine recombinant COX–1, the “IC50 (95% CI), COX–1 enzyme assay” value is “no effect (up to 100 μM)”. The entries for the “COX-2 Expression, HCA-7 cell line” value in the data set on COX–2 protein [4] and in the data set with COX–2 protein [4] (listed as naringenin) were 100 μM:COX–2 ↓ and “decreased COX–2 expression”, respectively. Further, in the data set on COX–2 protein [5], the “COX–2 protein levels, LPS stimulated RAW 264.7 cells” value is listed as “decreased COX–2 protein levels”. Further, the “plasma peak level, total naringenin (free and conjugated form)” value in data set [6] (humans, ingestion of grapefruit juice (0.2 g total naringenin)) was 6 µM. For the same molecule, the “COX-2 Expression, primary monocytes” value with COX–2 protein [7] is recorded as 100, 30 μM:COX–2 ↓; in the data set with COX–2 protein [7] (listed as naringenin), “Decreased COX–2 protein levels”.
Take `COc1ccc(-c2cc(=O)c3c(OC)c(OC)c(OC)c(OC)c3o2)cc1OC` [Nobiletin, nobiletin]: at COX–2 [1] (setting [9]), the half-maximal inhibitory concentration (IC50) is 24 µM. Further, the “changes of PGE2 formation in HCA–7 cells” value on COX–2 [2] is on record as “no or only slight; also recorded: affected”. The “inhibition, HCA-7 cell line” value at COX–2 [2] (up to 100 μM) was “inhibition < 50%(up to 100 μM)”. For the same molecule, at COX–2 [3], the “effect on COX–2 dependent PGE2 formation, cell-free enzyme assay” value is given as “no effect” and the “IC50 (95% CI), COX–2 enzyme assay” value is given as “no effect (up to 100 μM)”. Also, at ovine recombinant COX–1, the “effect on COX–1 dependent PGE2 formation, cell-free enzyme assay” value is listed as “no effect” and the “IC50 (95% CI), COX–1 enzyme assay” value is listed as “no effect (up to 100 μM)”. Moreover, in the data set on COX–2 protein [4], the “COX-2 Expression, HCA-7 cell line” value is given as 100 μM:COX–2 ↓. The “COX-2 Expression, HCA-7 cell line” value in the data set on COX–2 protein [4] (listed as nobiletin) is recorded as “decreased COX–2 expression”. Further, in the data set on COX–2 protein [5], the “COX–2 protein levels, LPS stimulated RAW 264.7 cells” value is recorded as “decreased COX–2 protein levels”. The “COX-2 Expression, primary monocytes” value with COX–2 protein [7] is reported as “no effect(up to 100 μM)”.
For hopeaphenol, the “inhibition, primary monocytes” value at COX–2 [1] (up to 1 μM) is on record as “inhibition < 50% (up to 1 μM)”. For the same molecule, on COX–2 [2], the “IC50 (95% CI), HCA-7 cell line” value was “no effect (up to 1 μM)” and the “changes of PGE2 formation in HCA–7 cells” value was “no or only slight”. For the same molecule, at COX–2 [3], the “effect on COX–2 dependent PGE2 formation, cell-free enzyme assay” value was “dose-dependently decreased; also recorded: inhibited” and the IC50 was 22 µM. In addition, on ovine recombinant COX–1, the “effect on COX–1 dependent PGE2 formation, cell-free enzyme assay” value is given as “dose-dependently decreased; also recorded: inhibited” and the IC50 is 4 µM. For the same molecule, in the data set with COX–2 protein [4], the “COX-2 Expression, HCA-7 cell line” value is “no effect (up to 1 μM)”. Also, in the data set on COX–2 protein [7], the “COX-2 Expression, primary monocytes” value was 1 μM: COX–2 ↓. Further, in the data set with COX–2 protein [7] (listed as hopeaphenol), the “COX-2 Expression, primary monocytes” value is on record as “Decreased COX–2 protein levels”.
